Holding throughout (assay): biochemical
In one assay the target is BRG1 (Homo sapiens, UniProt P51532). It counts as binding. The settings on record: BRG1 HTRF IC50 (µM). The text has this: IC50 measurements for inhibitors using BRG1 TR-FRET Binding Assay
Assay [1] concerns the target Polybromodomain-1 BromoDomain-5 (PB1-BD5) (Homo sapiens, UniProt Q86U86). The text has this: IC50 measurements for inhibitors using Polybromodomain-1 BromoDomain-5 (PB1-BD5) SM TR-FRET Binding Assay
The target in assay [2] is BRM (Isoform 2) Bromodomain (Homo sapiens, UniProt P51531). The text has this:
IC50 measurements for inhibitors using BRM SM TR-FRET Binding Assay

The term IC50 denotes the midpoint of a concentration-inhibition curve. A lower IC50 goes with inhibition by little substance.

Sequence of BRG1 (P51532 1448-1575): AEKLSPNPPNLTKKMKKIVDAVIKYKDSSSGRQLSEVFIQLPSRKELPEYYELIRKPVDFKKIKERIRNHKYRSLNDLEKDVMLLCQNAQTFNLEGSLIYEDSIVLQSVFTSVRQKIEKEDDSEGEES
Sequence of Polybromodomain-1 BromoDomain-5 (PB1-BD5) (Q86U86 645-766): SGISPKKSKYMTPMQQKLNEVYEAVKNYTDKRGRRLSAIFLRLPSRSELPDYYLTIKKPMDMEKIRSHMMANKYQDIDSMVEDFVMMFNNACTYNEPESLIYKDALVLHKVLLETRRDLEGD
Sequence of BRM (Isoform 2) Bromodomain (P51531 1377-1486 isoform P51531-2): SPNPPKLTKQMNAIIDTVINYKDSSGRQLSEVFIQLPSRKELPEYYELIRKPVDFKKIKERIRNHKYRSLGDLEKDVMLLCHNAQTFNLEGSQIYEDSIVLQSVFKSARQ

For the compound `CC(COc1cc(-c2ccccc2O)nnc1N)c1ccccc1` (stereo not drawn) [Example 178, 2-(6-amino-5-(2-phenylpropoxy)pyridazin-3-yl)phenol], the values for the IC50 (at BRG1; in assay [1]; in assay [2]) were 0.0122 µM, 5.3 nM and 7.2 nM, respectively.

Source of the values: EP3262036B1, “THERAPEUTIC PYRIDAZINE COMPOUNDS AND USES THEREOF” (priority 2015, dated 2016).
